Here are results for 22 compounds from patent publication US8445505B2 (IRM LLC, priority 2008, dated 2013).

This assay has as its target IGF1R Ba/F3 (Homo sapiens, UniProt P08069). As to the kind of experiment: Ba/F3 Cell Viability Inhibition Assay (Tel-TK transformed Ba/F3 lines). The assay is classed as cell-based, murine. Set-up: the printed alternative. To be noted: Tel-TK (IGF1R) transformed Ba/F3 cells, 48 hours incubation, cell viability (Britelite luminescence). From the text: Ba/F3 is a murine IL-3-dependent pro-B lymphoma cell line. Parental Ba/F3 cells are used to generate a panel of sublines whose proliferation and survival is rendered IL-3-independent by stable transduction with individual tyrosine kinases activated by fusion with the amino-terminal portion of TEL (amino acid 1-375) or BCR. In order to generate Ba/F3 cell lines transformed by Tel-Tyrosine Kinase (TK) fusions, parental Ba/F3 cells are infected with a retrovirus harboring each TEL-fusion kinase and subjected to puromycin selection and IL-3 withdrawal to obtain IL-3-independent, transformed Ba/F3 cells.
Each transformed Ba/F3 cells are cultured in RPMI-1640 media (Gibco Cat #11875093, Carlsbad, Calif.) supplemented with 10% FBS (Hyclone Cat #SV30014.03, Logan, Utah), 4.5 g/L glucose (Sigma #G5400, St.Louis, Mo.), 1.5 g/L sodium bicarbonate (Biowhittaker #17-613E, Walkersville, Md.) and Pen/Strep (Gibco #10378-016, Carlsbad, Calif.). Cells are splitted twice weekly.
The potency of test compounds against various Tel-TK transformed Ba/F3 lines is determined as follows. Exponentially growing BaF3 Tel-TK cells are diluted in fresh medium to 75,000 cells/mL and seeded into 384-well plates (3750 cells/well) at 50 μL/well using a gill liquid dispenser (BioTek, Winooski, Vt., USA). Duplicate plates are run for each cell line. Test and control compounds are serially diluted with DMSO and arrayed in a polypropylene 384-well plate. 50 nL of compound is transferred into the assay plates using a pin-transfer device, and the plates are incubated at 37° C. (5% CO2) for 48 hours. 25 μL Britelite (Perkin Elmer) is added and luminescence is quantified using Analyst GT (Molecular Devices). Custom curve-fitting software is used to produce a logistic fit of percent cell viability as a function of the logarithm of inhibitor concentration. The IC50 is interpolated as the concentration of compound needed to reduce cell viability to 50% of a DMSO control. Parental Ba/F3 cells that are maintained and cultured in presence of IL-3 (1 ng/ml in final) are diluted in fresh medium containing IL-3 (1 ng/ml in final) to 75,000 cells/mL following the same procedure as described above.

IGF1R Ba/F3, sequence (P08069 999-1274 limits assumed): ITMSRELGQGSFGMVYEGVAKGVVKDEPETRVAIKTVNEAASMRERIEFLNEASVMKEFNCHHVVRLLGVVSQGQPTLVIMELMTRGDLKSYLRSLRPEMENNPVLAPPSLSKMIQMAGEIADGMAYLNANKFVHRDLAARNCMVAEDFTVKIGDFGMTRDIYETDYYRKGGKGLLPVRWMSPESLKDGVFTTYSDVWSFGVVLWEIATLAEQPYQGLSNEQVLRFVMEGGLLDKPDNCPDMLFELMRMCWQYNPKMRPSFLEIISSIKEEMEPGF

Turning to `Cc1cc(Nc2nc(Nc3cc(C)c([C@H]4CC[C@H](N5C[C@H](O)[C@@H](O)C5)CC4)cc3F)ncc2C(F)(F)F)n[nH]1` [Compound 69, (3S,4S)-1-((trans)-4-(5-fluoro-2-methyl-4-(4-(5-methyl-1H-pyrazol-3-ylamino)-5-(trifluoromethyl)pyrimidin-2-ylamino)phenyl)cyclohexyl)pyrrolidine-3,4-diol], the half-inhibitory concentration (IC50) (usually the concentration that inhibits the measured activity by half) came out at 302 nM. Under `Cc1cc(Nc2nc(Nc3ccc(C4CCN(CCS(C)(=O)=O)CC4)c4cccnc34)ncc2Cl)n[nH]1` [Compound 78, 5-chloro-N4-(5-methyl-1H-pyrazol-3-yl)-N2-(5-(1-(2-(methylsulfonyl)ethyl)piperidin-4-yl)quinolin-8-yl)pyrimidine-2,4-diamine] stands 412 nM; under `Cc1cc(Nc2nc(Nc3cc(C)c([C@H]4CC[C@H](N5CCCCC5)CC4)cc3F)ncc2C(F)(F)F)n[nH]1` [Compound 63, N^2-(2-fluoro-5-methyl-4-(trans-4-(piperidin-1-yl)cyclohexyl)phenyl)-N^4-(5-methyl-1H-pyrazol-3-yl)-5-(trifluoromethyl)pyrimidine-2,4-diamine], 16 nM. Turning to `Cc1cc(Nc2nc(Nc3cc(C)c([C@H]4CC[C@H](NC5CC5)CC4)cc3C)ncc2Cl)n[nH]1` [Compound 46, Trans-5-chloro-N2-(4-(4-(cyclopropylamino)cyclohexyl)-2,5-dimethylphenyl)-N4-(5-methyl-1H-pyrazol-3-yl)pyrimidine-2,4-diamine], the IC50 amounted to 16 nM. This lies in the double-digit nanomolar range. Consider `Cc1cc(Nc2nc(Nc3cc(C)c(CN4CCOCC4)cc3C)ncc2Cl)n[nH]1` [Compound 39, 5-Chloro-N^2-(2,5-dimethyl-4-(morpholinomethyl)phenyl)-N^4-(5-methyl-1H-pyrazol-3-yl)pyrimidine-2,4-diamine], for which the concentration for half-maximal inhibition (IC50) was 151 nM.

Compound `Cc1cc(Nc2nc(Nc3cc(C)c([C@H]4CC[C@H](N5CCOCC5)CC4)cc3C)ncc2C(F)(F)F)n[nH]1` [Compound 67, N^2-(2,5-dimethyl-4-(trans-4-morpholinocyclohexyl)phenyl)-N^4-(5-methyl-1H-pyrazol-3-yl)-5-(trifluoromethyl)pyrimidine-2,4-diamine] showed an IC50 of 9 nM. For `Cc1cc(Nc2nc(Nc3cc(C)c([C@H]4CC[C@@H](O)CC4)cc3C)ncc2C(F)(F)F)n[nH]1` [Compound 42, cis-4-(2,5-dimethyl-4-(4-(5-methyl-1H-pyrazol-3-ylamino)-5-(trifluoromethyl)pyrimidin-2-ylamino)phenyl)cyclohexanol] the value was 53 nM; for `Cc1cc(Nc2nc(Nc3cc(C)c([C@H]4CC[C@H](O)CC4)cc3C)ncc2C(F)(F)F)n[nH]1` [Compound 41, trans-4-(2,5-dimethyl-4-(4-(5-methyl-1H-pyrazol-3-ylamino)-5-(trifluoromethyl)pyrimidin-2-ylamino)phenyl)cyclohexanol], 25 nM; for `Cc1cc(Nc2nc(Nc3cc4c(cc3F)CN(C3CCNCC3)C4=O)ncc2Cl)n[nH]1` [Compound 79, 6-(5-chloro-4-(5-methyl-1H-pyrazol-3-ylamino)pyrimidin-2-ylamino)-5-fluoro-2-(piperidin-4-yl)isoindolin-1-one], 6400 nM. In turn, `Cc1cc(Nc2nc(Nc3cc(C)c(-c4cccnc4)cc3F)ncc2Cl)n[nH]1` [Compound 3, 5-chloro-N2-(2-fluoro-5-methyl-4-(pyridin-3-yl)phenyl)-N4-(5-methyl-1H-pyrazol-3-yl)pyrimidine-2,4-diamine] displayed a 50% inhibitory concentration (IC50) of 67 nM. Consider `Cc1cc(Nc2nc(Nc3cc(C)c(-c4ccc5c(c4)CCN(C)C5)cc3C)ncc2Cl)n[nH]1` [Compound 75, 5-chloro-N2-(2,5-dimethyl-4-(2-methyl-1,2,3,4-tetrahydroisoquinolin-6-yl)phenyl)-N4-(5-methyl-1H-pyrazol-3-yl)pyrimidine-2,4-diamine], for which half-maximal inhibition (IC50) required 54 nM. For `Cc1ccc(-c2cc(F)c(Nc3ncc(Cl)c(Nc4cc(C)[nH]n4)n3)cc2C)cn1` [Compound 5, 5-chloro-N2-(2-fluoro-5-methyl-4-(6-methylpyridin-3-yl)phenyl)-N4-(5-methyl-1H-pyrazol-3-yl)pyrimidine-2,4-diamine] the value was 137 nM. For `Cc1cc(Nc2nc(Nc3cc(C)c([C@H]4CC[C@H](O)CC4)cc3C)ncc2Cl)n[nH]1` [Compound 45, trans-4-(4-(5-chloro-4-(5-rnethyl-1H-pyrazol-3-ylamino)pyrimidin-2-ylamino)-2,5-dimethylphenyl)cyclohexanol] the value was 14 nM; for `Cc1cc(-c2cc(F)c(Nc3ncc(Cl)c(Nc4cc(C)[nH]n4)n3)cc2C)ccn1` [Compound 9, 5-chloro-N2-(2-fluoro-5-methyl-4-(2-methylpyridin-4-yl)phenyl)-N4-(5-methyl-1H-pyrazol-3-yl)pyrimidine-2,4-diamine], 94 nM; for `Cc1cc(Nc2nc(Nc3cc(C)c(-c4ccoc4)cc3F)ncc2Cl)n[nH]1` [Compound 11, 5-chloro-N2-(2-fluoro-4-(furan-3-yl)-5-methylphenyl)-N4-(5-methyl-1H-pyrazol-3-yl)pyrimidine-2,4-diamine], 683 nM. In turn, `C/C(=N\OCCN1CCOCC1)c1cc(C)c(Nc2ncc(Cl)c(Nc3cc(C)[nH]n3)n2)cc1C` [Compound 36, 1-(4-(5-chloro-4-(5-methyl-1H-pyrazol-3-ylamino)pyrimidin-2-ylamino)-2,5-dimethylphenyl)ethanone O-2-morpholinoethyl oxime] had an IC50 of 187 nM. This IC50 is about 3.7-fold lower than that of the compound before. On to `Cc1cc(Nc2nc(Nc3cc(C)c([C@H]4CC[C@@H](N5CCCCC5)CC4)cc3F)ncc2C(F)(F)F)n[nH]1` [Compound 62, N^2-(2-fluoro-5-methyl-4-(cis-4-(piperidin-1-yl)cyclohexyl)phenyl)-N^4-(5-methyl-1H-pyrazol-3-yl)-5-(trifluoromethyl)pyrimidine-2,4-diamine], for which the IC50 is 18 nM.

For `CCN(CC)[C@H]1CC[C@@H](c2cc(F)c(Nc3ncc(Cl)c(Nc4cc(C)[nH]n4)n3)cc2C)CC1` [Compound 56, 5-chloro-N2-(4-((cis)-4-(diethylamino)cyclohexyl)-2-fluoro-5-methylphenyl)-N4-(5-methyl-1H-pyrazol-3-yl)pyrimidine-2,4-diamine], 25 nM corresponded to half-maximal inhibition (IC50).

`Cc1cc(Nc2nc(Nc3cc(C)c([C@H]4CC[C@@H](N5C[C@H](O)[C@@H](O)C5)CC4)cc3F)ncc2C(F)(F)F)n[nH]1` [Compound 68, (3S,4S)-1-((cis)-4-(5-fluoro-2-methyl-4-(4-(5-methyl-1H-pyrazol-3-ylamino)-5-(trifluoromethyl)pyrimidin-2-ylamino)phenyl)cyclohexyl)pyrrolidine-3,4-diol] yielded an IC50 of 120 nM. This IC50 lies about 4.8-fold higher than the previous one.

In the case of `CCN1CCc2ccc(Nc3ncc(Cl)c(Nc4cc(C)[nH]n4)n3)cc2CC1` [Compound 89], the 50% inhibitory concentration (IC50) came out at 88 nM.

The compound `Cc1cc(Nc2nc(Nc3cc(C)c(C4CCN(CC(N)=O)CC4)cn3)ncc2Cl)n[nH]1` [Compound 84, 2-(4-(6-(5-Chloro-4-(5-methyl-1H-pyrazol-3-ylamino)pyrimidin-2-ylamino)-4-methylpyridin-3-yl)piperidin-1-yl)acetamide] had an IC50 of 525 nM. `Cc1cc(Nc2nc(Nc3cc(C)c([C@H]4CC[C@H](N5CCCCC5)CC4)cc3C)ncc2Cl)n[nH]1` [Compound 44, Trans-5-chloro-N2-(2,5-dimethyl-4-(4-(piperidin-1-yl)cyclohexyl)phenyl)-N4-(5-methyl-1H-pyrazol-3-yl)pyrimidine-2,4-diamine] gave a 50% inhibitory concentration (IC50) of 7 nM. This IC50 lies about 75-fold lower than the previous one.
